Experimental data published in the OPERA property sets (Mansouri et al. 2018).

Row | SMILES | logP
1 | N#CN=[N+]([O-])c1ccccc1 | 1.87
2 | N#CN=[N+]([O-])c1ncccn1 | -0.13
3 | N#C/N=[N+](\[O-])c1cccc(F)c1 | 1.85
4 | N#CN=[N+]([O-])c1cccc(C(F)(F)F)c1 | 2.52
5 | Cc1cccc([N+]([O-])=NC#N)c1 | 2.49
6 | N#CN=[N+]([O-])c1cccc(C#N)c1 | 1.15
7 | N#C/N=[N+](\[O-])c1ccccn1 | 0.53
8 | N#C/N=[N+](\[O-])c1ccc([N+](=O)[O-])cc1 | 1.51
9 | N#CN=[N+]([O-])c1ccc(C(F)(F)F)cc1 | 2.47
10 | N#CN=[N+]([O-])c1cccc2ccccc12 | 3.17
11 | COc1cccc(/[N+]([O-])=N/C#N)c1 | 2.24
12 | N#CN=[N+]([O-])c1cnccn1 | 0.1
13 | N#CN=[N+]([O-])c1ccc(C#N)cc1 | 1.18
14 | N#C/N=[N+](\[O-])c1cccc(Br)c1 | 2.56
15 | CCNc1nonc1N | 0.51
16 | CN(C)c1ccc(/[N+]([O-])=N/C#N)cc1 | 2.3
17 | N#C/N=[N+](\[O-])c1cccc(Cl)c1 | 2.4
18 | N#CN=[N+]([O-])c1ccc(F)cc1 | 1.8
19 | Cc1ccc([N+]([O-])=NC#N)cc1 | 2.39
20 | N#C/N=[N+](\[O-])c1ccc(Br)cc1 | 2.5
21 | COc1ccc(/[N+]([O-])=N/C#N)cc1 | 2.15
22 | N#CN=[N+]([O-])c1ccc(Cl)cc1 | 2.33
23 | N#C/N=[N+](\[O-])c1cccc([N+](=O)[O-])c1 | 1.45
24 | N#CN=[N+]([O-])c1ccnc2ccccc12 | 2.07
